# Laboratory results as given in patent US8795979B2, “Hydrolase enzyme substrates and uses thereof” (General Atomics, priority 2011, dated 2014).
# Assays:
# Assay type in all cases: biochemical
# [1] = target: T1, aryl alcohol dehydrogenase (AAD) (Pseudomonas putida, UniProt P39849); experiment: Kinetic constants of AAD; conditions: recombinant Pseudomonas putida AAD
# T1 construct: made in house; host or cells: E. coli
# T1 sequence (P39849 1-366): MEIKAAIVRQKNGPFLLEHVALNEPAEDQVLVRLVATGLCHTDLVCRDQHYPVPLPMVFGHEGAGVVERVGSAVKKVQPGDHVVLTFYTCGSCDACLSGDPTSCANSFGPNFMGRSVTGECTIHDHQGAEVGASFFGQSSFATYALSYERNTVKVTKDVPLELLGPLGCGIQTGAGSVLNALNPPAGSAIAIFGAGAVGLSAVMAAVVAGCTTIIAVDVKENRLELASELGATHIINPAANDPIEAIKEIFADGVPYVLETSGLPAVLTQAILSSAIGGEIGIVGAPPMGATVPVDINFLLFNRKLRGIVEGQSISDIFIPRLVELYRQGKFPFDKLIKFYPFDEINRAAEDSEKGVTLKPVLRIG
# Description: AAO was purified from Pleurotus eryngii using the procedures described in Guillen, F. et al., “Substrate specificity and properties of aryl-alcohol oxidase from the ligninolytic fungus Pleurotus eryngii,” Eur. J. Biochem., 209:603-611 (1992). The purification steps include concentration, anion exchange chromatography and hydrophobic interaction chromatography. DNA construct for recombinant production of Pseudomonas putida AAD was made based on the DNA sequence disclosed in Shaw, J. P. et al., Kinetic studies on benzyl alcohol dehydrogenase encoded by TOL plasmid pWW0,” J. Biol. Chem., 268:10842-10850 (1993), and the recombinant Pseudomonas putida AAD was made by overexpression in E. coli. The cycling system was combined with chemiluminescent (lumino)-hydrogen peroxide-horseradish peroxidase) reaction to form a sensitive assay.
# For AAD, KNADH=9.1±2 μM; Kp-Anisyl aldehyde=6.6±0.8 μM; and kcat=30/s.
# beta-galactosidase = experiment: Hydrolysis by beta-galactosidase coupled with aryl alcohol oxidase, H2O2 detection; conditions: 10 mM substrate, 10 unit/ml beta-galactosidase and 20 unit/ml aryl alcohol oxidase, 37° C., 30 min
# Description: (§1) The aryl alcohol dehydrogenase used in this example was recombinantly produced based on the description in Guillen and Evans, Appl. Environmental Microbiol., 60(8):2811-17 (1994) and Reiser et al., J. Biol. Chem., 269(45):28152-28159 (1994).
# aryl alcohol oxidase = experiment: Incubation with aryl alcohol oxidase alone, H2O2 detection; conditions: no beta-galactosidase
# Description: as §1
smiles,measurement,setting,value
"NC(=O)C1=CN([C@@H]2O[C@H](COP(=O)(O)OP(=O)(O)OC[C@H]3O[C@@H](n4cnc5c(N)ncnc54)[C@H](O)[C@@H]3O)[C@@H](O)[C@H]2O)C=CC1 [NADH, reference compound]",KNADH (AAD),[1],9.1 ± 2 µM
COc1ccc(C=O)cc1 [p-Anisyl aldehyde],Kp-Anisyl aldehyde (AAD),[1],6.6 ± 0.8 µM
same,kcat (AAD),[1],30 s⁻¹
"COc1ccc(CO[C@@H]2OC(CO)[C@H](O)[C@@H](O)C2O)cc1 (stereo partly drawn) [p-MOBG, p-Methoxybenzyl-β-D-Galactopyranoside]",generation of H2O2 (detected by peroxidase in the presence of 4-AA and TOOS at 560 nm),beta-galactosidase,resulted in generation of H2O2
same,H2O2 detected on incubation with aryl alcohol oxidase alone,aryl alcohol oxidase,no H2O2 detected
